In patent US7138361B2, “Herbicidal heterocycles” (E. I. du Pont de Nemours and Company, priority 2000, dated 2006):

Tests used:
Format in all cases: in vivo
Nightshade = assay: Test C preemergence
Sunflower [1] = assay: Test C preemergence; details: Rate 125 g/ha; scale 0 to 100, 0 no effect, 100 complete control
[2] = system: Surinam grass (Brachiaria decumbens); assay: Test C preemergence; details: for Plant response rating (0 to 100), Surinam grass: visual evaluation after 12 to 14 days
Outline: (§1)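 Each compound was dissolved in a non-phytotoxic solvent system containing a surfactant and sprayed either on freshly planted seeds (preemergence) or on young plants, 2 to 18 cm high (postemergence). Ratings after 12 to 14 greenhouse days ran from 0, no effect, to 100, complete control.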

[3] = system: bermudagrass (Cynodon dactylon); assay: Test C preemergence; details: for Plant response rating (0 to 100 where 0 is no effect and 100 is complete control), Bermudagrass: visual evaluation after 12 to 14 days
Outline: as §1

[4] = system: cocklebur (Xanthium strumarium); assay: Test C preemergence; details: for Plant response rating (0 to 100), Cocklebur: visual evaluation after 12 to 14 days
Outline: as §1

corn (Zea mays) = assay: Test C preemergence; details: for Plant response rating (0 to 100), Corn: visual evaluation after 12 to 14 days
Outline: as §1

[5] = system: crabgrass (Digitaria sanguinalis); assay: Test C preemergence; details: for Plant response rating (0 to 100), Crabgrass: visual evaluation after 12 to 14 days
Outline: as §1

[6] = system: giant foxtail (Setaria faberii); assay: Test C preemergence; details: for Plant response rating (0 to 100), Foxtail, Giant: visual evaluation after 12 to 14 days
Outline: as §1

[7] = system: goosegrass (Eleusine indica); assay: Test C preemergence; details: for Plant response rating (0 to 100), Goosegrass: visual evaluation after 12 to 14 days
Outline: as §1

[8] = system: johnsongrass (Sorghum halepense); assay: Test C preemergence; details: for Plant response rating (0 to 100), Johnsongrass: visual evaluation after 12 to 14 days
Outline: as §1

kochia (Kochia scoparia) = assay: Test C preemergence; details: for Plant response rating (0 to 100), Kochia: visual evaluation after 12 to 14 days
Outline: as §1

[9] = system: lambsquarters (Chenopodium album); assay: Test C preemergence
Outline: as §1

[10] = system: morningglory (Ipomoea hederacea); assay: Test C preemergence
Outline: as §1

[11] = system: pigweed (Amaranthus retroflexus); assay: Test C preemergence
Outline: as §1

soybean (Glycine max) = assay: Test C preemergence
Outline: as §1

[12] = system: velvetleaf (Abutilon theophrasti); assay: Test C preemergence
Outline: as §1

[13] = system: woolly cupgrass (Eriochloa villosa); assay: Test C preemergence; details: for Plant response rating (0 to 100), Cupgrass, Woolly: visual evaluation after 12 to 14 days
Outline: as §1

[14] = system: yellow nutsedge (Cyperus esculentus); assay: Test C preemergence
Outline: as §1

[15] = system: barnyardgrass (Echinochloa crus-galli); assay: Test C flooded paddy test; details: for Barnyardgrass plant response rating: Flooded Paddy, scale 0 to 100, 0 no effect, 100 complete control
Outline: (§2)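 Flooded paddy, 2-leaf stage at treatment. Readout: visual % control vs untreated, 0–100, at 12–14 d in greenhouse.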

[16] = system: duck salad (Heteranthera limosa); assay: Test C flooded paddy test; details: for Ducksalad plant response rating: Flooded Paddy, scale 0 to 100, 0 no effect, 100 complete control; for Plant response rating, Ducksalad: flooded paddy test, scale 0 to 100 (0 no effect, 100 complete control)
Outline: as §2

[17] = system: smallflower flatsedge (Cyperus difformis); assay: Test C flooded paddy test; details: for Flatsedge plant response rating: Flooded Paddy, scale 0 to 100, 0 no effect, 100 complete control; for Plant response rating, Flatsedge: flooded paddy test, scale 0 to 100 (0 no effect, 100 complete control)
Outline: as §2

Sunflower [18] = assay: Test C preemergence; details: Rate 500 g/ha, visual evaluation after 12 to 14 days
[19] = Rate 125 g/ha, scale 0 to 100, 0 no effect, 100 complete control
[20] = preemergence, Rate 62 g/ha, scale 0 to 100
[21] = preemergence, Rate 500 g/ha, visual evaluation after 12 to 14 days
[22] = preemergence, Rate 250 g/ha, scale 0 to 100, 0 no effect, 100 complete control

CCC(CC)c1ccn(C2CCN(c3cccc(OC(C)C)c3)C2=O)n1 (centres unmarked) [Compound 84]
Plant response rating, Nightshade (Nightshade; Rate 62 g/ha, scale 0 to 100): 30 | Plant response rating, Nightshade (Nightshade; [19]): 50 | Plant response rating, Nightshade (Nightshade; Rate 250 g/ha, scale 0 to 100, 0 no effect, 100 complete control): 100 | Plant response rating, Sunflower (Sunflower [1]): 10 | Plant response rating, Surinam grass [2, 19]: 0 | Plant response rating, Surinam grass [2, 20]: 0 | Plant response rating (0 to 100), Surinam grass ([2]; preemergence, Rate 250 g/ha): 30 | Plant response rating (0 to 100), Surinam grass ([2]; preemergence, Rate 500 g/ha): 80 | Plant response rating, Bermudagrass [3, 19]: 100 | Plant response rating, Bermudagrass [3, 20]: 100 | Plant response rating (0 to 100 where 0 is no effect and 100 is complete control), Bermudagrass ([3]; preemergence, Rate 250 g/ha): 100 | Plant response rating (0 to 100 where 0 is no effect and 100 is complete control), Bermudagrass ([3]; preemergence, Rate 500 g/ha): 100 | Plant response rating, Cocklebur [4, 19]: 0 | Plant response rating, Cocklebur [4, 20]: 0 | Plant response rating (0 to 100), Cocklebur ([4]; preemergence, Rate 250 g/ha): 0 | Plant response rating (0 to 100), Cocklebur ([4]; preemergence, Rate 500 g/ha): 0 | Plant response rating, Corn (corn (Zea mays); [19]): 0 | Plant response rating, Corn (corn (Zea mays); [20]): 0 | Plant response rating (0 to 100), Corn (corn (Zea mays); preemergence, Rate 250 g/ha): 0 | Plant response rating (0 to 100), Corn (corn (Zea mays); preemergence, Rate 500 g/ha): 0 | Plant response rating, Crabgrass [5, 19]: 100 | Plant response rating, Crabgrass [5, 20]: 90 | Plant response rating (0 to 100), Crabgrass ([5]; preemergence, Rate 250 g/ha): 100 | Plant response rating (0 to 100), Crabgrass ([5]; preemergence, Rate 500 g/ha): 100 | Plant response rating, Foxtail, Giant [6, 19]: 80 | Plant response rating, Foxtail, Giant [6, 20]: 10 | Plant response rating (0 to 100), Foxtail, Giant ([6]; preemergence, Rate 250 g/ha): 100 | Plant response rating (0 to 100), Foxtail, Giant ([6]; preemergence, Rate 500 g/ha): 100 | Plant response rating, Goosegrass [7, 19]: 80 | Plant response rating, Goosegrass [7, 20]: 20 | Plant response rating (0 to 100), Goosegrass ([7]; preemergence, Rate 250 g/ha): 90 | Plant response rating (0 to 100), Goosegrass ([7]; preemergence, Rate 500 g/ha): 100 | Plant response rating, Johnsongrass [8, 19]: 0 | Plant response rating, Johnsongrass [8, 20]: 0 | Plant response rating (0 to 100), Johnsongrass ([8]; preemergence, Rate 250 g/ha): 0 | Plant response rating (0 to 100), Johnsongrass ([8]; preemergence, Rate 500 g/ha): 0 | Plant response rating, Kochia (kochia (Kochia scoparia); [19]): 100 | Plant response rating, Kochia (kochia (Kochia scoparia); [20]): 80 | Plant response rating (0 to 100), Kochia (kochia (Kochia scoparia); preemergence, Rate 250 g/ha): 100 | Plant response rating (0 to 100), Kochia (kochia (Kochia scoparia); preemergence, Rate 500 g/ha): 100 | Plant response rating, Lambsquarters [9, 19]: 100 | Plant response rating, Lambsquarters [9, 20]: 100 | Plant response rating (0 to 100), Lambsquarters [9, 21]: 100 | Plant response rating, Lambsquarters [9, 22]: 100 | Plant response rating, Morningglory [10, 19]: 20 | Plant response rating, Morningglory [10, 20]: 0 | Plant response rating (0 to 100), Morningglory [10, 21]: 20 | Plant response rating, Morningglory [10, 22]: 20 | Plant response rating, Pigweed [11, 19]: 0 | Plant response rating, Pigweed [11, 20]: 90 | Plant response rating (0 to 100), Pigweed [11, 21]: 90 | Plant response rating, Pigweed [11, 22]: 100 | Plant response rating, Soybean (soybean (Glycine max); [19]): 0 | Plant response rating, Soybean (soybean (Glycine max); [20]): 0 | Plant response rating (0 to 100), Soybean (soybean (Glycine max); [21]): 0 | Plant response rating, Soybean (soybean (Glycine max); [22]): 0 | Plant response rating, Velvetleaf [12, 19]: 0 | Plant response rating, Velvetleaf [12, 20]: 0 | Plant response rating (0 to 100), Velvetleaf [12, 21]: 0 | Plant response rating, Velvetleaf [12, 22]: 0 | Plant response rating, Cupgrass, Woolly [13, 19]: 90 | Plant response rating, Cupgrass, Woolly [13, 20]: 60 | Plant response rating (0 to 100), Cupgrass, Woolly ([13]; preemergence, Rate 250 g/ha): 90 | Plant response rating (0 to 100), Cupgrass, Woolly ([13]; preemergence, Rate 500 g/ha): 100 | Plant response rating, Nutsedge [14, 19]: 0 | Plant response rating, Nutsedge [14, 20]: 0 | Plant response rating (0 to 100), Nutsedge [14, 21]: 0 | Plant response rating, Nutsedge [14, 22]: 0 | Barnyardgrass plant response rating ([15]; Rate 250 g/ha): 100 | Barnyardgrass plant response rating ([15]; Rate 500 g/ha): 100 | Plant response rating, Barnyardgrass ([15]; flooded paddy test, Rate 62 g/ha, scale 0 to 100 (0 no effect, 100 complete control)): 80 | Ducksalad plant response rating ([16]; Rate 250 g/ha): 100 | Ducksalad plant response rating ([16]; Rate 500 g/ha): 100 | Plant response rating, Ducksalad ([16]; Rate 62 g/ha): 90 | Plant response rating, Ducksalad ([16]; Rate 125 g/ha): 90 | Flatsedge plant response rating ([17]; Rate 250 g/ha): 100 | Flatsedge plant response rating ([17]; Rate 500 g/ha): 100 | Plant response rating, Flatsedge ([17]; Rate 62 g/ha): 90 | Plant response rating, Flatsedge ([17]; Rate 125 g/ha): 90 | Plant response rating (0 to 100), Sunflower (Sunflower [18]): 30
